{"source": "ChEMBL document CHEMBL4270535", "about": "“Facile synthesis of vanillin-based novel bischalcones identifies one that induces apoptosis and displays synergy with Artemisinin in killing chloroquine resistant Plasmodium falciparum” (Eur J Med Chem, 2018)", "key": {"[1]": {"assay": "Resistance index, ratio of IC50 for synchronized ring stage of chloroquine-resistant Plasmodium falciparum Dd2 infected in human erythrocytes to IC50 for synchronized ring stage of chloroquine-sensitive Plasmodium falciparum 3D7 infected in human erythrocytes", "format": "functional"}, "Plasmodium falciparum [2]": {"test_system": "Plasmodium falciparum", "assay": "Potentiation of artemisinin-induced antiplasmodial activity against synchronized ring stage of chloroquine-sensitive Plasmodium falciparum 3D7 infected in human erythrocytes assessed as fold reduction in artemisinin IC50 relative to artemisinin alone", "format": "functional"}, "[3]": {"assay": "Resistance index, ratio of IC50 for synchronized ring stage of chloroquine-resistant Plasmodium falciparum INDO infected in human erythrocytes to IC50 for synchronized ring stage of chloroquine-sensitive Plasmodium falciparum 3D7 infected in human erythrocytes", "format": "functional"}, "[4]": {"assay": "Selectivity index, ratio of IC50 for human HeLa cells to IC50 for synchronized ring stage of chloroquine-sensitive Plasmodium falciparum 3D7 infected in human erythrocytes", "format": "toxicity, cell-based", "conditions": "read-out: Ratio IC50"}, "[5]": {"assay": "Selectivity index, ratio of IC50 for mouse L929 cells to IC50 for synchronized ring stage of chloroquine-sensitive Plasmodium falciparum 3D7 infected in human erythrocytes", "format": "toxicity, cell-based", "conditions": "read-out: Ratio IC50"}, "Plasmodium falciparum [6]": {"test_system": "Plasmodium falciparum", "assay": "Antiplasmodial activity against synchronized ring stage of chloroquine-resistant Plasmodium falciparum Dd2 infected in human erythrocytes after 48 hrs by SYBR Green 1 dye based fluorescence assay", "format": "functional, organism-based", "conditions": "Dd2, 48 h"}, "Plasmodium falciparum [7]": {"test_system": "Plasmodium falciparum", "assay": "Antiplasmodial activity against synchronized ring stage of chloroquine-resistant Plasmodium falciparum INDO infected in human erythrocytes after 48 hrs by SYBR Green 1 dye based fluorescence assay", "format": "functional, organism-based"}}, "data": [{"smiles": "C[C@@H]1CC[C@H]2[C@@H](C)C(=O)O[C@@H]3O[C@@]4(C)CC[C@@H]1[C@]32OO4", "note": "[ARTEMISININ]", "values": [{"measurement": "Ratio IC50", "setting": "[1]", "value": 0.87}, {"measurement": "Ratio IC50", "setting": "Plasmodium falciparum [2]", "value": "1.7 - 3.7"}, {"measurement": "Ratio IC50", "setting": "[3]", "value": 1}, {"measurement": "selectivity ratio", "setting": "[4]", "value": "> 200"}, {"measurement": "selectivity ratio", "setting": "[5]", "value": "> 200"}, {"measurement": "IC50", "setting": "Plasmodium falciparum [6]", "value": 13, "unit": "nM"}, {"measurement": "IC50", "setting": "Plasmodium falciparum [7]", "value": 15, "unit": "nM"}]}]}
